Tested on: liver cells
Assay: Distribution ratio into fractions and efflux scoring of a fluorescent drug in cultured liver cells (Steps 0-6, plate reader)
Assay type: in vitro ADME, rat
Experimental: In this step, liver cells are prepared and cultured for verifying an effect of a drug. An example will be shown below. The preparation of liver cells was made according to an in-situ collagenase perfusion method. The detail is as follows. A rat (5 to 6 weeks old) is subjected to laparotomy under pentobarbital anesthesia, and a catheter is inserted into the portal vein and a pre-perfusion fluid (Hanks' solution not containing Ca2+ and Mg2+ but containing EGTA) is injected.
Liver cells prepared by the in-situ collagenase perfusion method as described above are suspended in a medium, and the liver cells in the suspension at a density of 5×10^5 cells/mL are seeded on a commercially available collagen-coated culture dish, to conduct two dimensional plane culture (for example, sandwich culture). The seeding density, medium, culture plate 001 are not particularly limited.
After seeding, culture is started using a CO2 incubator under conditions of 5% CO2 and 37° C. After 18 hours or more elapse, a first medium exchange is performed. Although a medium used for culture from 18 hours after the seeding is not particularly limited, in this example, a medium obtained by excluding FCS from a medium (10% FCS+) to make a medium (herein after medium (FCS−)) and then adding matrigel thereto was used. After that, medium exchange is performed with the medium (FCS−) every 24 hours.
In this step, cells cultured in Step 0 are conditioned to a condition suitable for a drug assessment. An example will be shown below. The culture supernatant of cells cultured for 4 days in Step 0 is removed, […] of a Hanks' solution is added as a buffer, and then incubation is performed at 37° C. for 10 minutes (FIG. 2, Step 1).
In this step, a drug solution to be assessed is administered to cells. An example will be shown below. After removing the buffer, 200 μL of 10 μM CDF (fluorescent reagent) is added to a well, incubation is performed at 37° C. for 30 minutes, the well is then retained at 4° C. for 5 minutes (FIG. 2, Step 2). […]

[1] = Pattern 1, drug incubated 37° C. 30 minutes, fluorescence measurement

Substance: Rhodamine 123
- ratio of the bile duct excretion drug amount relative to the whole drug amount taken in the cells (BiRD), (B1-B2)/(C1+C2) [1]: 4.92
- ratio of the drug amount discharged via a transporter relative to the blood-vessel-side discharge drug amount (RexEMTP), (B2-B3)/B2 [1]: 52.52
- sup fraction (first blood-vessel-side discharge fraction, S1) (Pattern 2: total sum of Steps 4, 5 and 6 taken as 100%, Step 4 Hanks' solution 37° C. 30 minutes, in %): 39.29
